Consider one molecule from ChEMBL document CHEMBL4837247, “Discovery of a Potent Dual SLK/STK10 Inhibitor Based on a Maleimide Scaffold” (J Med Chem, 2021).

For this assay, the target named is Serine/threonine-protein kinase 10 (Homo sapiens, UniProt O94804). The assay can be described thus: Inhibition of STK10 (unknown origin) expressed in Sf9 cells assessed as transfer of radiolabelled phosphate group from ATP by reaction biology method.
Serine/threonine-protein kinase 10, sequence (O94804 whole entry): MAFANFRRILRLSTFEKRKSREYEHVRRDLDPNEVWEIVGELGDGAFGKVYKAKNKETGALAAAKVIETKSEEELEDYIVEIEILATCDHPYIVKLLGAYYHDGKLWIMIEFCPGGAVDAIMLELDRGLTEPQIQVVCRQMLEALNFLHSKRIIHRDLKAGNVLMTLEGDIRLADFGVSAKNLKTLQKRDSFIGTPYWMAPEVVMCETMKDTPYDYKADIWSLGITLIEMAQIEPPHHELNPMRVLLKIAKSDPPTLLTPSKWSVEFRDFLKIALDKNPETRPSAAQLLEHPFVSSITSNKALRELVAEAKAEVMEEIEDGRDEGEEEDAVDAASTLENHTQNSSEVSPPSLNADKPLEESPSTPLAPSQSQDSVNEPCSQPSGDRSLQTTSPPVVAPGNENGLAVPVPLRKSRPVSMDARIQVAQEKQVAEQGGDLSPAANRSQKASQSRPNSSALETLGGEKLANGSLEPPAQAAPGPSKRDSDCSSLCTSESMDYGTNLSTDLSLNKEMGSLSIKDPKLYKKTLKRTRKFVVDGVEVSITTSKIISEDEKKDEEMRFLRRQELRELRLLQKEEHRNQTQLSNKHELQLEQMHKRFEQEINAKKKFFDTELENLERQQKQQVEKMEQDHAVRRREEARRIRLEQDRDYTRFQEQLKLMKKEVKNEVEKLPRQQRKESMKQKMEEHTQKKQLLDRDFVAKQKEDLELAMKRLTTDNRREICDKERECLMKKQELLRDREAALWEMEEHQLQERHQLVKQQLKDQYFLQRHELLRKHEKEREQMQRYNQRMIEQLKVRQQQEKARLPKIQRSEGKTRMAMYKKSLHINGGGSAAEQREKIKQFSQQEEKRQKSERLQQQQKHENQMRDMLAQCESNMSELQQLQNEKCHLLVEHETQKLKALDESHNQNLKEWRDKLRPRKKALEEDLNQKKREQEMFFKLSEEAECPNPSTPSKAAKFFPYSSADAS

In the case of `Cn1cc(C2=C(c3cn(CCCSC(=N)N)c4ccccc34)C(=O)NC2=O)c2ccccc21` [BISINDOLYLMALEIMIDE IX], the 50% inhibitory concentration (IC50) was 0.099 µM.

What is called IC50 is the concentration needed to halve the response being measured.
